According to patent publication US7488740B2, “Substituted quinolin-4-ylamine analogues” (Neurogen Corporation, priority 2003, dated 2009):

Target: T1, human capsaicin receptor (Homo sapiens, UniProt Q8NER1)
T1 construct: A cDNA encoding full length human capsaicin receptor recited in U.S. Pat. No. 6,482,611 was subcloned in the plasmid pBK-CMV; expressed in transfected cells
Test: Calcium mobilization assay (Example 6)
Type: cell-based
Conditions: concentration required to provide a 50% decrease in the fluorescence response of cells exposed to one IC50 of capsaicin
Method in brief: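 HEK293 clonal lines stably expressing full-length human capsaicin receptor, Fluo-3 AM loaded in KRH buffer pH 7.4. Compounds (final 1-5 μM) preincubated 0.5-6 h at room temperature in the dark, then capsaicin added at its predetermined IC50 concentration. FLIPR calcium signal at 30-60 s; IC50 = antagonist concentration giving 50% decrease.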

T1 sequence (Q8NER1 whole entry): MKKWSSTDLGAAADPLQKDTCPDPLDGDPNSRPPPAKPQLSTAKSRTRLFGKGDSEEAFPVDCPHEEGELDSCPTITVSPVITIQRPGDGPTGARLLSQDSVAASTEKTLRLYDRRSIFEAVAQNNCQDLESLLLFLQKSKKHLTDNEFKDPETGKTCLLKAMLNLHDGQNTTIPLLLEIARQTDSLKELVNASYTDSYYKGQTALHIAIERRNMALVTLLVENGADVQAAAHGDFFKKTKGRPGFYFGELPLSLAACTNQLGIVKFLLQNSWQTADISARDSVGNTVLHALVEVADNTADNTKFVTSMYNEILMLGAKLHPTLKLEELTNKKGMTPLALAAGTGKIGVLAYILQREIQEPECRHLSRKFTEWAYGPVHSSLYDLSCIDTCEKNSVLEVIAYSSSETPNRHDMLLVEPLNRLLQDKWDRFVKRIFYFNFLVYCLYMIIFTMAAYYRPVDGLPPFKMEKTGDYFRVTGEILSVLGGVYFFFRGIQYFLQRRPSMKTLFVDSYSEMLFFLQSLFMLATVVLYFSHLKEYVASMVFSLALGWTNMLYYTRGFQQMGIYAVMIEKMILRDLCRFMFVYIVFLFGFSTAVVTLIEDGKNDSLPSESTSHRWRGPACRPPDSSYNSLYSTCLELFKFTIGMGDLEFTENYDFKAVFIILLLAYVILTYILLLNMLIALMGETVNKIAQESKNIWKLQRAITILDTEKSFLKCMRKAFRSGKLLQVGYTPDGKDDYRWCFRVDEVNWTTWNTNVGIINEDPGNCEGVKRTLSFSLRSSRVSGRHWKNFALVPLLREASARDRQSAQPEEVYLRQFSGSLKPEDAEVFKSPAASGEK

Structure (SMILES): FC(F)(F)c1ccc(Nc2cc(CN3CCCCC3)nc3nc(-c4ncccc4C(F)(F)F)ccc23)nc1 [Compound 92, 2-(piperidin-1-ylmethyl)-7-[3-(trifluoromethyl)pyridin-2-yl]-N-[5-(trifluoromethyl)pyridin-2-yl]-1,8-naphthyridin-4-amine]
- IC50: ≤ 1 µM

Structure (SMILES): CCc1cc(Nc2ccc(C(C)=O)cn2)c2ccc(-c3ncccc3C(F)(F)F)nc2n1 [Compound 111, 1-[6-({2-ethyl-7-[3-(trifluoromethyl)pyridin-2-yl]-1,8-naphthyridin-4-yl}amino)pyridin-3-yl]ethanone]
- IC50: ≤ 1 µM

Structure (SMILES): COc1cc(Nc2ccc(C(F)(F)F)cn2)c2ccc(-c3ncccc3C(F)(F)F)nc2n1 [Compound 96, 2-methoxy-7-[3-(trifluoromethyl)pyridin-2-yl]-N-[5-(trifluoromethyl)pyridin-2-yl]-1,8-naphthyridin-4-amine]
- IC50: ≤ 1 µM

Structure (SMILES): CC(C)c1cc(Nc2ccc(C(F)(F)F)cn2)c2ccc(-c3ncccc3C(F)(F)F)nc2n1 [Compound 102, 2-isopropyl-7-[3-(trifluoromethyl)pyridin-2-yl]-N-[5-(trifluoromethyl)pyridin-2-yl]-1,8-naphthyridin-4-amine]
- IC50: ≤ 1 µM

Structure (SMILES): CCCN(CCCO)Cc1cc(Nc2ccc(C(F)(F)F)cc2)c2ccc(-c3ncccc3C(F)(F)F)nc2n1 [Compound 79]
- IC50: ≤ 1 µM

Structure (SMILES): CC(C)CCOc1cc(Nc2ccc(C(C)(C)C)cc2)c2ccc(-c3ncccc3C(F)(F)F)cc2n1 [Compound 32, N-(4-tert-butylphenyl)-2-(isopentyloxy)-7-[3-(trifluoromethyl)pyridin-2-yl]quinolin-4-amine]
- IC50: ≤ 1 µM

Structure (SMILES): CC(O)COCc1cc(Nc2ccc(C(F)(F)F)cc2)c2ccc(-c3ncccc3C(F)(F)F)nc2n1 (stereo not shown) [Compound 66, 1-({4-{[4-(trifluoromethyl)phenyl]amino}-7-[3-(trifluoromethyl)pyridin-2-yl]-1,8-naphthyridin-2-yl}methoxy)propan-2-ol]
- IC50: ≤ 1 µM

Structure (SMILES): CC(C)N(CCCO)Cc1cc(Nc2ccc(C(F)(F)F)cc2)c2ccc(-c3ncccc3C(F)(F)F)nc2n1 [Compound 78, 3-[isopropyl({4-{[4-(trifluoromethyl)phenyl]amino}-7-[3-(trifluoromethyl)pyridin-2-yl]-1,8-naphthyridin-2-yl}methyl)amino]propan-1-ol]
- IC50: ≤ 1 µM

Structure (SMILES): CC(C)NCc1cc(Nc2ccc(C(F)(F)F)cc2)c2ccc(-c3ncccc3C(F)(F)F)nc2n1 [Compound 58, 2-[(isopropylamino)methyl]-N-[4-(trifluoromethyl)phenyl]-7-[3-(trifluoromethyl)pyridin-2-yl]-1,8-naphthyridin-4-amine]
- IC50: ≤ 1 µM

Structure (SMILES): OCc1cc(Nc2ccc(C(F)(F)F)cc2)c2ccc(-c3ncccc3C(F)(F)F)nc2n1 [Compound 5, {4-{[4-(trifluoromethyl)phenyl]amino}-7-[3-(trifluoromethyl)pyridin-2-yl]-1,8-naphthyridin-2-yl}methanol]
- IC50: ≤ 1 µM

Structure (SMILES): COC(C)c1cc(Nc2ccc(C(C)=O)cn2)c2ccc(-c3ncccc3C(F)(F)F)nc2n1 (stereo not shown) [Compound 120, 1-[6-({2-(1-methoxyethyl)-7-[3-(trifluoromethyl)pyridin-2-yl]-1,8-naphthyridin-4-yl}amino)pyridin-3-yl]ethanone]
- IC50: ≤ 1 µM

Structure (SMILES): Cc1cccnc1-c1ccc2c(Nc3cnc(C(F)(F)F)cn3)ccnc2n1 [Compound 144, 7-(3-methylpyridin-2-yl)-N-[5-(trifluoromethyl)pyrazin-2-yl]-1,8-naphthyridin-4-amine]
- IC50: ≤ 1 µM

Structure (SMILES): Cc1cc(Nc2ccc(C(F)(F)F)cc2)c2ccc(-c3ncccc3C(F)(F)F)cc2n1 [Compound 1, 2-methyl-N-[4-(trifluoromethyl)phenyl]-7-[3-(trifluoromethyl)pyridin-2-yl]quinolin-4-amine]
- IC50: ≤ 1 µM

Structure (SMILES): CC(C)COCc1cc(Nc2ccc(C#N)cn2)c2ccc(-c3ncccc3C(F)(F)F)nc2n1 [Compound 87, 6-({2-(isobutoxymethyl)-7-[3-(trifluoromethyl)pyridin-2-yl]-1,8-naphthyridin-4-yl}amino)nicotinonitrile]
- IC50: ≤ 1 µM

Structure (SMILES): Cc1cc(Nc2ccc(C(F)(F)F)cc2)c2ccc(-c3ncccc3C(F)(F)F)nc2n1 [Compound 48, 2-methyl-N-[4-(trifluoromethyl)phenyl]-7-[3-(trifluoromethyl)pyridin-2-yl]-1,8-naphthyridin-4-amine]
- IC50: ≤ 1 µM

Structure (SMILES): CCCc1cc(Nc2ccc(S(C)(=O)=O)cn2)c2ccc(-c3ncccc3C(F)(F)F)nc2n1 [Compound 123, N-[5-(methylsulfonyl)pyridin-2-yl]-2-propyl-7-[3-(trifluoromethyl)pyridin-2-yl]-1,8-naphthyridin-4-amine]
- IC50: ≤ 1 µM

Structure (SMILES): FC(F)(F)c1cnc(Nc2ccnc3nc(-c4ncccc4C(F)(F)F)ccc23)nc1 [Compound 132, 7-[3-(trifluoromethyl)pyridin-2-yl]-N-[5-(trifluoromethyl)pyrimidin-2-yl]-1,8-naphthyridin-4-amine]
- IC50: ≤ 1 µM

Structure (SMILES): CC(C)COCc1cc(Nc2ccc(C(F)(F)F)cc2)c2ccc(-c3ncccc3Cl)nc2n1 [Compound 52, 7-(3-chloropyridin-2-yl)-2-(isobutoxymethyl)-N-[4-(trifluoromethyl)phenyl]-1,8-naphthyridin-4-amine]
- IC50: ≤ 1 µM

Structure (SMILES): Cc1ccc(Nc2cc(COCC(C)C)nc3nc(-c4ncccc4C(F)(F)F)ccc23)nc1 [Compound 83, 2-(isobutoxymethyl)-N-(5-methylpyridin-2-yl)-7-[3-(trifluoromethyl)pyridin-2-yl]-1,8-naphthyridin-4-amine]
- IC50: ≤ 1 µM

Structure (SMILES): COc1cc(Nc2ccc(C(C)(C)C)cc2)c2ccc(-c3ncccc3C(F)(F)F)nc2n1 [Compound 47, N-(4-tert-butylphenyl)-2-methoxy-7-[3-(trifluoromethyl)pyridin-2-yl]-1,8-naphthyridin-4-amine]
- IC50: ≤ 1 µM

Structure (SMILES): C[C@@H]1CN(Cc2cc(Nc3ccc(C(F)(F)F)cc3)c3ccc(-c4ncccc4C(F)(F)F)nc3n2)C[C@H](C)O1 [Compound 24, 2-{[(2R,6S)-2,6-dimethylmorpholin-4-yl]methyl}-N-[4-(trifluoromethyl)phenyl]-7-[3-(trifluoromethyl)pyridin-2-yl]-1,8-naphthyridin-4-amine]
- IC50: ≤ 1 µM

Structure (SMILES): CC(C)COCc1cc(Nc2ccccn2)c2ccc(-c3ncccc3C(F)(F)F)nc2n1 [Compound 84, 2-(isobutoxymethyl)-N-pyridin-2-yl-7-[3-(trifluoromethyl)pyridin-2-yl]-1,8-naphthyridin-4-amine]
- IC50: ≤ 1 µM

Structure (SMILES): CC1CCCN1Cc1cc(Nc2ccc(C(F)(F)F)cn2)c2ccc(-c3ncccc3C(F)(F)F)nc2n1 (stereo not shown) [Compound 93, 2-[(2-methylpyrrolidin-1-yl)methyl]-7-[3-(trifluoromethyl)pyridin-2-yl]-N-[5-(trifluoromethyl)pyridin-2-yl]-1,8-naphthyridin-4-amine]
- IC50: ≤ 1 µM

Structure (SMILES): CCCc1cc(Nc2ccc(C(C)=O)cn2)c2ccc(-c3ncccc3C(F)(F)F)nc2n1 [Compound 115, 1-[6-({2-propyl-7-[3-(trifluoromethyl)pyridin-2-yl]-1,8-naphthyridin-4-yl}amino)pyridin-3-yl]ethanone]
- IC50: ≤ 1 µM

Structure (SMILES): CCN(CC)Cc1cc(Nc2ccc(C(F)(F)F)cn2)c2ccc(-c3ncccc3C(F)(F)F)nc2n1 [Compound 94, 2-[(diethylamino)methyl]-7-[3-(trifluoromethyl)pyridin-2-yl]-N-[5-(trifluoromethyl)pyridin-2-yl]-1,8-naphthyridin-4-amine]
- IC50: ≤ 1 µM

Structure (SMILES): CC(C)COCc1cc(Nc2ccc(S(=O)(=O)N(C)C)cc2)c2ccc(-c3ncccc3C(F)(F)F)nc2n1 [Compound 68, 4-({2-(isobutoxymethyl)-7-[3-(trifluoromethyl)pyridin-2-yl]-1,8-naphthyridin-4-yl]amino)-N,N-dimethylbenzenesulfonamide]
- IC50: ≤ 1 µM

Structure (SMILES): C[C@@H]1CN(Cc2cc(Nc3ccc(C(F)(F)F)cn3)c3ccc(-c4ncccc4C(F)(F)F)nc3n2)C[C@H](C)O1 [Compound 90, rel-2-{[(2R,6S)-2,6-dimethylmorpholin-4-yl]methyl}-7-[3-(trifluoromethyl)pyridin-2-yl]-N-[5(trifluoromethyl)pyridin-2-yl]-1,8-naphthyridin-4-amine]
- IC50: ≤ 1 µM

Structure (SMILES): CC(C)COc1cc(Nc2ccc(C(F)(F)F)cc2)c2ccc(-c3ncccc3C(F)(F)F)cc2n1 [Compound 18, 2-isobutoxy-N-[4-(trifluoromethyl)phenyl]-7-[3-(trifluoromethyl)pyridin-2-yl]quinolin-4-amine]
- IC50: ≤ 1 µM

Structure (SMILES): FC(F)(F)c1ccc(Nc2cc(CN3CCC3)nc3nc(-c4ncccc4C(F)(F)F)ccc23)cc1 [Compound 55, 2-(azetidin-1-ylmethyl)-N-[4-(trifluoromethyl)phenyl]-7-[3-(trifluoromethyl)pyridin-2-yl]-1,8-naphthyridin-4-amine]
- IC50: ≤ 1 µM

Structure (SMILES): CCc1ccc(Nc2ccnc3nc(-c4ncccc4C(F)(F)F)ccc23)nc1 [Compound 143, N-(5-ethylpyridin-2-yl)-7-[3-(trifluoromethyl)pyridin-2-yl]-1,8-naphthyridin-4-amine]
- IC50: ≤ 1 µM

Structure (SMILES): COCc1cc(Nc2ccc(C(F)(F)F)cc2)c2ccc(-c3ncccc3F)nc2n1 [Compound 62, 7-(3-fluoropyridin-2-yl)-2-(methoxymethyl)-N-[4-(trifluoromethyl)phenyl]-1,8-naphthyridin-4-amine]
- IC50: ≤ 1 µM

Structure (SMILES): COCc1cc(Nc2ccc(C(C)(C)C)cc2)c2ccc(-c3ncccc3C(F)(F)F)nc2n1 [Compound 3]
- IC50: ≤ 1 µM

Structure (SMILES): FC(F)(F)c1ccc(Nc2cc(Cl)nc3nc(-c4ncccc4C(F)(F)F)ccc23)cc1 [Compound 34, 2-chloro-N-[4-(trifluoromethyl)phenyl]-7-[3-(trifluoromethyl)pyridin-2-yl]-1,8-naphthyridin-4-amine]
- IC50: ≤ 1 µM

Structure (SMILES): CC(C)COCc1cc(Nc2ccc(C(C)(C)O)cc2)c2ccc(-c3ncccc3C(F)(F)F)nc2n1 [Compound 57, 2-[4-({2-(isobutoxymethyl)-7-[3-(trifluoromethyl)pyridin-2-yl]-1,8-naphthyridin-4-yl}amino)phenyl]propan-2-ol]
- IC50: ≤ 1 µM
